Legend:
[1] = xn = mol fraction of the nth substance listed; details: 101 kPa, Liquid; for speed of sound: Linear variable-path acoustic interferometer; for mass density: Pycnometric method
[2] = 101 kPa, Liquid; for speed of sound: Linear variable-path acoustic interferometer; for mass density: Pycnometric method

Cc1cccc(N)c1 [3-methylaniline] + CC(C)OC(C)C
[1]
Details	mass density, 303.15 K [kg/m3]	mass density, 313.15 K [kg/m3]	mass density, 323.15 K [kg/m3]	speed of sound, 303.15 K [m/s]	speed of sound, 313.15 K [m/s]	speed of sound, 323.15 K [m/s]
x2 = 0	980.8	972.7	964.6	1567	1533	1492
x2 = 0.0743	961	954.3	946.9	1515	1482	1443
x2 = 0.1546	939.9	934	927	1462	1429	1391
x2 = 0.2421	917.2	911.5	904.6	1404	1371	1334
x2 = 0.3279	894.6	888.9	881.9	1350	1315	1280
x2 = 0.4275	868	862.1	855	1289	1254	1218
x2 = 0.53	840	834	826.9	1230	1193	1158
x2 = 0.6285	812.7	806.4	799.4	1175	1138	1101
x2 = 0.7424	781.2	774.5	767	1113	1075	1036
x2 = 0.8651	747.8	740.1	731.6	1048	1007	966

Cc1ccccc1N [2-methylaniline]
[2]
Details	mass density [kg/m3]	speed of sound [m/s]
303.15 K	990.1	1579
313.15 K	981.7	1539
323.15 K	973.3	1501

Cc1ccccc1N [2-methylaniline] + CC(C)OC(C)C
[1]
Details	mass density, 303.15 K [kg/m3]	mass density, 313.15 K [kg/m3]	mass density, 323.15 K [kg/m3]	speed of sound, 303.15 K [m/s]	speed of sound, 313.15 K [m/s]	speed of sound, 323.15 K [m/s]
x2 = 0	990.1	981.7	973.3	1579	1539	1501
x2 = 0.0717	968.9	962.3	955.7	1530	1491	1457
x2 = 0.1513	946.3	940.3	934.4	1475	1437	1404
x2 = 0.2389	922	916.1	910.4	1415	1378	1343
x2 = 0.3255	898.8	892.6	886.4	1359	1320	1284
x2 = 0.4206	873.5	866.9	860.2	1299	1259	1224
x2 = 0.5248	845.6	838.8	831.6	1237	1197	1160
x2 = 0.625	817.9	811	803.6	1180	1139	1103
x2 = 0.7415	784.9	777.6	770	1116	1074	1038
x2 = 0.866	749.3	741	732.8	1049	1007	968

CC(C)OC(C)C [diisopropyl ether] + Cc1cccc(N)c1
[1], x1 = 1
Details	mass density [kg/m3]	speed of sound [m/s]
303.15 K	712.9	976
313.15 K	702.9	932
323.15 K	691.9	889

Cc1cccc(N)c1 [3-methylaniline]
[2]
Details	mass density [kg/m3]	speed of sound [m/s]
303.15 K	980.8	1567
313.15 K	972.7	1533
323.15 K	964.6	1492

Source: the NIST ThermoML archive (doi:10.1016/j.tca.2011.01.019)
